Series [1] is described as follows: Solvent miscibility and compatibility with butyl cyanoacrylate. Format: physicochemical. The arrangement: key: V = slightly viscous; VV = viscous; VVV = very viscous; Lyr = layers; Pl = pale; Lt = light; Y = yellow; RX = reacts; Gry = grey; Brn = brown; Blk = black. Conditions: 3 ml solvent + 3 ml BCA. As to the method:
(§1) Next, the solvents were tested for miscibility and compatibility with cyanoacrylate esters. Briefly, beginning with 3 ml samples each of butyl cyanoacrylate (BCA), octyl cyanoacrylate (OCA) and ethoxyethyl cyanoacrylate (EECA), 3 ml of each solvent was added drop-wise to each cyanoacrylate sample and agitated to aid mixing. Observations of the samples were taken immediately and then at regular intervals over 7 days. […] The remaining 10 solvents were ranked according to their compatibility with the cyanoacrylate esters based primarily on their compatibility with BCA over 7 days, secondarily on their compatibility with OCA, and finally on their miscibility with EECA.

A short description of series [2]: Solvent miscibility and compatibility with octyl cyanoacrylate. The format is physicochemical. The arrangement: key: V = slightly viscous; VV = viscous; VVV = very viscous; Lyr = layers; Pl = pale; Lt = light; Y = yellow; RX = reacts; Gry = grey; Brn = brown; Blk = black. To be noted: 3 ml solvent + 3 ml OCA. The protocol:
as §1

The nature of series [3]: Solvent miscibility and compatibility with ethoxyethyl cyanoacrylate. Format: physicochemical. To be noted: 3 ml solvent + 3 ml EECA. The protocol: as §1
Series [4] can be described thus: Solvent miscibility and compatibility with cyanoacrylate esters (overall). Format: physicochemical. Conditions: observations over 7 days. The protocol: as §1
The conditions of series [5]: relative volatility compared to butyl acetate; cited from earlier work.
For series [6], the system named is rat. Conditions: oral dose administered to rat; cited from earlier work.
The conditions of series [7]: cited from earlier work.
The nature of series [8]: Solvent compatibility with viscosity-increasing polymer, viscosity of solution: MMA. The format is physicochemical. The arrangement: unit not given here. Conditions: polymer added at 5% by weight, up to 3 days agitation.
Series [9] is described as follows: Solvent compatibility with viscosity-increasing polymer, viscosity of solution: CAB. The format is physicochemical. The arrangement: unit not given here. To be noted: polymer added at 5% by weight, up to 3 days agitation.
The nature of series [10]: Solvent compatibility with viscosity-increasing polymer, viscosity of solution: Cap. Format: physicochemical. To be noted: polymer added at 5% by weight, up to 3 days agitation.
Series [11] in a line: Solvent compatibility with viscosity-increasing polymer, viscosity of solution: VEE. Conditions: polymer added at 5% by weight, up to 3 days agitation. The arrangement: unit not given here. Format: physicochemical.
Series [12] in a line: Solvent compatibility with viscosity-increasing polymer, viscosity of solution: IB. The format is physicochemical. Conditions: polymer added at 5% by weight, up to 3 days agitation.

Read-outs that look alike come from different tables or passages of the source.

For `CC(=O)C(C)C` [3-Methyl 2-butanone], the “BCA compatibility, 1 Day” value in series [1] (1 Day) is “Gry”. In series [1], the “BCA compatibility, 2 Day” value is reported as “Blk” and the “BCA compatibility, 7 Day” value was “Blk”. In series [2] (1 Day), the “OCA compatibility, 1 Day” value is given as “VV”. In addition, the “OCA compatibility, 2 Day” value in series [2] (2 Day) was “VV”. Further, the “OCA compatibility, 7 Day” value in series [2] (7 Day) is reported as “VV”. Besides, the “EECA compatibility, 1 Day” value in [3] (1 Day) was “LtBrn”. The “EECA compatibility, 2 Day” value in series [3] (2 Day) was “LtGry”. For the same compound, the “EECA compatibility, 7 Day” value in series [3] (7 Day) was “LtGry”. The “Reaction with the cyanoacrylate esters” value in series [4] is reported as “apparent reactions”. Further, in series [5], the “VL (volatility)” value is listed as 2.9. Also, in [6], the “TOX (toxicity, LD50)” value is reported as 3078 mg/kg. For the same compound, the “VP (vapor pressure)” value in series [7] (at 20 ° C.) was 42@20 mmHg.
In the case of `CC(C)=O` [Acetone], in series [1], the “BCA compatibility, 2 Day” value is “V” and the “BCA compatibility, 7 Day” value is given as “VV”. The “Reaction with the cyanoacrylate esters” value in series [4] is “apparent reactions”. The “Viscosity of solution with MMA” value in series [8] was found to be 2.4. Also, the “Viscosity of solution with CAB” value in series [9] was determined as 1.8. Also, in series [5], the “VL (volatility)” value is recorded as 7.7. For the same compound, in [7] (at 39.5 ° C.), the “VP (vapor pressure)” value is 400@39.5 mmHg.
Take `Cc1ccccc1` [Toluene]: the “Viscosity of solution with Cap” value in series [10] is on record as 3.7. Besides, the “Viscosity of solution with VEE” value in [11] came out at 3.1. The “Viscosity of solution with IB” value in series [12] was found to be 20. In addition, the “VL (volatility)” value in series [5] is recorded as 2.24. Moreover, the “VP (vapor pressure)” value in series [7] (at 20 ° C.) was 22@20 mmHg.

Source of the values: US20150136150A1, “DURABLE SKIN MARKING COMPOSITIONS” (OP-MARKS, INC., priority 2011, published 2015).
